# From US20060025419A1, “Imidazoquinoxaline compound for the treatment of melanoma” (priority 2004, published 2006)
# What was measured:
# [1] = test system: Normal human epidermal melanocytes (NHEM); assay: Growth of cultured cells, hemocytometer counting; type: cell-based
# From the text: (§1) A super-repressor form of human IκBα (S32, 36A) resistant to degradation and mutant IKKβ […]) was kindly provided by Javier […] Cancer Center, University of California-San Diego School of Medicine). Antibodies to IKKα (H-744), IKKβ (H-470), Bcl-2, Bax and AIF were purchased from Santa Cruz Biotechnology, Inc. (Santa Cruz, Calif.). […] N-acetyl-L-cysteine (NAC) and Tiron were from Sigma-Aldrich (St. Louis, Mo.). Normal human epidermal melanocytes (NHEM) were provided by the Skin Disease Research Center in Vanderbilt University School of Medicine. NHEM were cultured in 154 medium with 1× human melanocyte growth supplement (Cascade Biologicals, Inc.). The melanoma cell lines, Sk Mel5, A375 and Hs294T, originally established from human metastatic melanoma, were purchased from American Type Culture Collection and cultured in DMEM: Ham's F-12 medium containing 10% FBS, 2 mM of L-glutamine, 100 μM of MEM Non-Essential Amino Acids (Life Technologies, Inc.), and 1 mM of sodium pyruvate (Sigma Chemical Co.). Aberrant activation of NF-κB has been associated with carcinogenesis, and constitutively high IKK activity has been detected in many tumor types, including human melanoma (Yang & Richmond, 2001; […] et al., 2003; […] et al., 2003). IKK is a major regulator of the NF-κB pathway and therefore represents an attractive therapeutic target in advanced cancers. […] After three days of culture, the cell numbers were determined by hemocytometer counting (Table 1).
# SK-Mel-5 cells = assay: Growth of cultured melanoma cells, hemocytometer counting; type: cell-based, human
# Procedure: (§2) FIGS. 1A-1E. […] After 72 h treatment, cells were photographed. […] 2×10^6 SK-Mel-5 melanoma cells were subcutaneously inoculated into nude mice (n=5 mice per group). […] Tumor size was measured using an electronic digital caliper at intervals of 4 days. Tumor volume was calculated and statistically analyzed. Data shown are representative of two independent experiments. […] BMS-345541 levels in serum (μM, left axis) and tumor tissues (nmoles per gram tumor protein, right axes) were determined at the indicated time points.
# A super-repressor form of human IκBα (S32, 36A) resistant to degradation and mutant IKKβ (K44M) was kindly provided by Javier Piedrafita (Sidney Kimmel Cancer Center, University of California-San Diego School of Medicine). Antibodies to IKKα (H-744), IKKβ (H-470), Bcl-2, Bax and AIF were purchased from Santa Cruz Biotechnology, Inc. (Santa Cruz, Calif.). Dihydroethidine, 3,3′dihexyloxacarbocyanine iodide and pan-caspase inhibitor (Z-VAD-FMK) were purchased from Molecular Probes (Eugene, Oreg.). N-acetyl-L-cysteine (NAC) and Tiron were from Sigma-Aldrich (St. Louis, Mo.). Normal human epidermal melanocytes (NHEM) were provided by the Skin Disease Research Center in Vanderbilt University School of Medicine. NHEM were cultured in 154 medium with 1× human melanocyte growth supplement (Cascade Biologicals, Inc.). The melanoma cell lines, Sk Mel5, A375 and Hs294T, originally established from human metastatic melanoma, were purchased from American Type Culture Collection and cultured in DMEM: Ham's F-12 medium containing 10% FBS, 2 mM of L-glutamine, 100 μM of MEM Non-Essential Amino Acids (Life Technologies, Inc.), and 1 mM of sodium pyruvate (Sigma Chemical Co.).
# Aberrant activation of NF-κB has been associated with carcinogenesis, and constitutively high IKK activity has been detected in many tumor types, including human melanoma (Yang & Richmond, 2001; Liptay et al., 2003; Mathas et al., 2003). IKK is a major regulator of the NF-κB pathway and therefore represents an attractive therapeutic target in advanced cancers. […] After three days of culture, the cell numbers were determined by hemocytometer counting (Table 1).
# A375 cells = assay: as above; type: cell-based, human
# From the text: as §1
# Hs 294T cells = assay: as above; type: cell-based, human
# From the text: as §1
# SK-Mel-5 tumors = assay: Melanoma tumor growth in nude mice; type: in vivo; conditions: 21 days
# Procedure: FIGS. 1A-1E. […] After 72 h treatment, cells were photographed. […] 2×10^6 SK-Mel-5 melanoma cells were subcutaneously inoculated into nude mice (n=5 mice per group). […] Tumor size was measured using an electronic digital caliper at intervals of 4 days. Tumor volume was calculated and statistically analyzed.
# Animal experimentation was undertaken according to protocols approved by the Institutional of Animal Care and Use Committee at Vanderbilt University. […] Tumor size was measured with an electronic digital caliper. Tumor volume was calculated by width^2×length×0.52 and expressed as mean±SD mm^3.
# A375 tumors = assay: Melanoma tumor growth in nude mice; type: in vivo; conditions: 75 mg/kg orally once daily, 21 days, vs vehicle
# Hs 294T tumors = assay: Melanoma tumor growth in nude mice; type: in vivo; conditions: 75 mg/kg orally once daily, 21 days, vs vehicle
# [2] = BMS-345541 levels in mouse serum and tumor tissues after oral dose; type: in vivo, mice
# Procedure: as §2
# Tumor tissue levels of drug were 3.2±0.97, 12.5±3.28 and 28.1±2.65 nmoles per gram tissue protein for the three treatment groups, respectively.
# caspase-3 = assay: Caspase-3 activity assay (Ac-DEVD-pNA) in cytosol extracts; type: cell-based, human
smiles,measurement,setting,value
"Cc1ccc2nc(NCCN)c3ncc(C)n3c2c1.Cl [BMS-345541, 4(2′-aminoethyl)amino-1,8-dimethylimidazo(1,2-a)quinoxaline]",cell number after three days of culture,[1]; 0.1 μM,4.8 ± 0.28
same,cell number after three days of culture,[1]; 1.0 μM,4.9 ± 0.38
same,cell number after three days of culture,[1]; 10 μM,0.18 ± 0.04
same,cell morphology,"SK-Mel-5 cells; 10 μM or 100 μM, 14 h (FIG. 1A)",appeared morphologically apoptotic
same,cell number after three days of culture,"SK-Mel-5 cells; Sk-Mel-5, 0.1 μM",3.7 ± 0.55 10^5
same,cell number after three days of culture,"SK-Mel-5 cells; Sk-Mel-5, 1.0 μM",2.7 ± 0.31 10^5
same,cell number after three days of culture,"SK-Mel-5 cells; Sk-Mel-5, 10 μM",0.028 ± 0.02 10^5
same,cell number after three days of culture,"SK-Mel-5 cells; Sk-Mel-5, 100 μM",0 10^5
same,cell number after three days of culture,"A375 cells; A375, 0.1 μM",3.2 ± 0.38 10^5
same,cell number after three days of culture,"A375 cells; A375, 1.0 μM",1.6 ± 0.38 10^5
same,cell number after three days of culture,"A375 cells; A375, 10 μM",0.020 ± 0.01 10^5
same,cell number after three days of culture,"A375 cells; A375, 100 μM",0 10^5
same,cell number after three days of culture,Hs 294T cells; 0.1 μM,1.9 ± 0.15 10^5
same,cell number after three days of culture,Hs 294T cells; 1.0 μM,2.2 ± 0.42 10^5
same,cell number after three days of culture,Hs 294T cells; 10 μM,0.013 ± 0.01 10^5
same,cell number after three days of culture,Hs 294T cells; 100 μM,0 10^5
same,SK-Mel-5 tumor growth (FIG. 1B),"SK-Mel-5 tumors; 10, 25 and 75 mg/kg orally once daily",effectively inhibits SK-Mel-5 tumor growth in a dose-dependent manner
same,inhibition of tumor growth,"SK-Mel-5 tumors; SK-Mel-5 tumors, 75 mg/kg orally once daily, vs vehicle",86±2.8%
same,inhibition of tumor growth,A375 tumors,69±11%
same,inhibition of tumor growth,Hs 294T tumors,67±3.4%
same,concentration in tumor tissues,"[2]; 75 mg/kg oral, 1.5 h (FIG. 1E)",19±2.5 nmoles/g tissue protein
same,concentration in tumor tissues,"[2]; 75 mg/kg oral, 3 h (FIG. 1E)",44±1.5 nmoles/g tissue protein
same,concentration in tumor tissues,"[2]; 75 mg/kg oral, 5 h (FIG. 1E)",30±1.0 nmoles/g tissue protein
same,concentration in tumor tissues,"[2]; 75 mg/kg oral, 8 h (FIG. 1E)",29±2.5 nmoles/g tissue protein
same,concentration in tumor tissues,"[2]; 75 mg/kg oral, 24 h (FIG. 1E)",11±0.83 nmoles/g tissue protein
same,tumor tissue level,[2]; 8 h after oral dose of 10 mg/kg,3.2±0.97 nmoles per gram tissue protein
same,tumor tissue level,[2]; 8 h after oral dose of 25 mg/kg,12.5±3.28 nmoles per gram tissue protein
same,tumor tissue level,[2]; 8 h after oral dose of 75 mg/kg (dose series),28.1±2.65 nmoles per gram tissue protein
same,concentration at 1.5 h,"[2]; nude, mouse, serum, 75 mg/kg oral, 1.5 h (FIG. 1E)",6.6 ± 0.31 µM
same,concentration at 3 h,"[2]; nude, mouse, serum, 75 mg/kg oral, 3 h (FIG. 1E)",18 ± 1.3 µM
same,concentration at 5 h,"[2]; nude, mouse, serum, 75 mg/kg oral, 5 h (FIG. 1E)",5.2 ± 0.19 µM
same,concentration at 8 h,"[2]; nude, mouse, serum, 75 mg/kg oral, 8 h (FIG. 1E)",4.1 ± 0.22 µM
same,concentration at 24 h,"[2]; nude, mouse, serum, 75 mg/kg oral, 24 h (FIG. 1E)",1100 ± 65 nM
same,concentration at 8 h,"[2]; nude, mouse, serum, 8 h after oral dose of 10 mg/kg",0.9 ± 0.25 µM
same,concentration at 8 h,"[2]; nude, mouse, serum, 8 h after oral dose of 25 mg/kg",3.1 ± 1.1 µM
same,concentration at 8 h,"[2]; nude, mouse, serum, 8 h after oral dose of 75 mg/kg (dose series)",8.2 ± 1.1 µM
same,specific caspase-3 activity,"caspase-3; SK-Mel-5, 10 μM BMS-345541, 36 h",1.6±0.092 pmol/min/μg protein
same,specific caspase-3 activity,"caspase-3; SK-Mel-5, 10 μM BMS-345541 in combination with 50 μM Z-VAD-fmk, 36 h",0.44±0.035 pmol/min/μg protein
